Molecules are shown by their SMILES. Read-outs that look alike come from different tables or passages of the source.

For test [1], the target named is T1, NK1 receptor (Cavia porcellus, UniProt P30547).
T1 construct: as evaluated in guinea pig lungs (Keystone Biologicals, Cleveland, Ohio); tissue Keystone Biologicals, Cleveland, Ohio; host or cells: guinea pig lung membranes
As to the kind of experiment: Antagonism of iodinated tachykinin (substance P) binding to NK1 receptors in guinea pig lungs. Particulars: read-out: NK1 Receptor Binding Affinity, IC50. On the procedure:
Antagonism of iodinated tachykinin binding to NK1 receptors by putative antagonists
One skilled in the art can measure the NK1 receptor affinity of proposed tachykinin antagonists as evaluated in guinea pig lungs (Keystone Biologicals, Cleveland, Ohio). Tissues or cells are homogenized with a Polytron in 15 volumes of 50 mM Tris-HCl buffer (pH 7.4, […]) and centrifuged. The pellet is resuspended in Tris-HCl buffer and centrifuged; the pellet is washed twice by resuspension. The final pellet is resuspended at a concentration of 40 mg/ml incubation buffer and remains at room temperature for at least 15 min prior to use. […] Incubations are performed at room temperature for 90 min; binding is terminated by addition of 50 mM Tris-HCl buffer (pH 7.4, […]) and filtration under vacuum through GF/B filters presoaked with 0.1% polyethyleneimine. Filter bound radioactivity is quantitated in a gamma counter. […] IC50 values (concentration required to inhibit 50% of receptor binding) are generated for each of the test compounds by nonlinear regression using an iterative curve fitting program (GraphPAD Inplot, San Diego, Calif.).

The target in test [2] is T2, H1 receptor (Cavia porcellus, UniProt P31389).
T2 construct: A piece of ileum, about 20 cm in length, is removed and cut into 2 cm pieces; from tissue; host or cells: ileum of male Hartley guinea pigs
The experiment in a line: Histamine (H1) antagonism in guinea pig ileum. It is filed as cell-based. On the procedure: Male Hartley guinea pigs, weighing 200-450 grams, are sacrificed by CO2 asphyxiation. A piece of ileum, about 20 cm in length, is removed and cut into 2 cm pieces. Each ileum piece is placed in an organ bath at 37° C. containing Tyrode's solution and is constantly aerated with 95% O2 /5%CO2. Tyrode's solution has the composition: NaCl 136.9 mM, KCl […], CaCl2 1.8 mM, NaH2 PO4 0.42 mM, NaHCO3 11.9 mM, and dextrose 5.55 mM. Contractions are measured with an isometric transducer (Grass FTO3C), and are recorded on a polygraph recorder and/or a computer. The ileum strips are loaded with 1.0 grams of tension and allowed to equilibrate for a minimum of 30 minutes before starting the experiments.
The potency of the antagonism is determined by the magnitude of the shift and is expressed as a pA2 value which is the negative logarithm of the molar concentration of antagonist which produces a two-fold shift of the dose response curve to the right. The pA2 value is calculated by using Schild analysis. O. Arunlakshana and H. O. Schild, Br. J. Pharmacol Chemother. 14, 48-58 (1958).
Table 1 presents pA2 values by the method of Example 93 which indicate potency of H1 receptor antagonism and IC50 values by the method of Example 95 which indicates NK1 receptor binding affinity for representative compounds of the present invention.

[3] abbreviates: read-out: H1 Receptor Antagonism, pA2, in vitro (converted).
Where [4] appears, read: guinea pig lungs, 0.1 nM 125I-Bolton Hunter Lys-3 labeled substance P, room temperature 90 min, pH 7.4.

T1 sequence (P30547 whole entry): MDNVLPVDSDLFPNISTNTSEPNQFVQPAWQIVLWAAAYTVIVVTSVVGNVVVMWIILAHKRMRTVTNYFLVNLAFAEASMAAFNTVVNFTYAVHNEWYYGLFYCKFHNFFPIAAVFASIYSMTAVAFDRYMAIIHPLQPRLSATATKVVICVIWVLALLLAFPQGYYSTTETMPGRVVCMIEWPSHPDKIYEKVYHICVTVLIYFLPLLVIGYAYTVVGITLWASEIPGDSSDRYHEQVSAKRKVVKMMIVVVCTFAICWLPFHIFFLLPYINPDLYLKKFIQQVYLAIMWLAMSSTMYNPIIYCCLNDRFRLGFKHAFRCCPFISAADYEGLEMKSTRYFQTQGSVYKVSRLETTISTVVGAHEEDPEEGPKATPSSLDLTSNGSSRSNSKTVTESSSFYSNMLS
T2 sequence (P31389 whole entry): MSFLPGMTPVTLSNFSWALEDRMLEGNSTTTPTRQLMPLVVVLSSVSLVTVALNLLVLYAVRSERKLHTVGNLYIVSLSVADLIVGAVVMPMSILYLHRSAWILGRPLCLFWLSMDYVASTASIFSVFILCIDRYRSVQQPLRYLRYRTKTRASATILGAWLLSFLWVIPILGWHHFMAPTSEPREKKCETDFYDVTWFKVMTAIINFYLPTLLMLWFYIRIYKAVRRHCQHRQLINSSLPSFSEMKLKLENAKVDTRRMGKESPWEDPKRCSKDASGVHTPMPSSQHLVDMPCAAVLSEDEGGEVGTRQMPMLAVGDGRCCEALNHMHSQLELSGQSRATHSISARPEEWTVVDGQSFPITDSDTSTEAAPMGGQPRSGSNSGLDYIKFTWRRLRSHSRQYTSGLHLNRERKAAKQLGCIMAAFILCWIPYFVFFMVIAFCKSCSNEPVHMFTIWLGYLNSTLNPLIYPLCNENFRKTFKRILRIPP

The IC50 is the point on the concentration scale where inhibition reaches its midpoint. Regarding `COc1cc(C(=O)N2CCC(CCN3CCC(C(=O)c4nc5ccccc5n4Cc4ccc(F)cc4)CC3)(c3ccc(Cl)c(Cl)c3)C2)cc(OC)c1OC` (single isomer, unassigned; (+)) [Example 14, (+)-1-(3,4,5-Trimethoxy-benzoyl)-3-[2-[4-[1-(4-fluoro-benzyl)-1 H-benzoimidazole-2-carbonyl]-piperidin-1-yl]-ethyl]-3-(3,4-dichloro-phenyl)-pyrrolidine], in test [1], the IC50 is 29 nM. Moreover, in test [2] (setting [3]), the Kb is 50.1 nM.
For `CCOCCn1c(C2(O)CCN(CCC3(c4ccc(Cl)c(Cl)c4)CCN(C(=O)c4cc(OC)c(OC)c(OC)c4)C3)CC2)nc2ccccc21` (single isomer, unassigned; (+)) [Example 81, (+)-1-(3,4,5-Trimethoxy-benzoyl)-3-[2-[4-[1-(2-ethoxy-ethyl)-1H-benzoimidazole]-4-hydroxy-piperidin-1-yl]-ethyl]-3-(3,4-dichloro-phenyl)-pyrrolidine], in that order: 10 nM and 525 nM.
With `COc1ccc(C2(CCN3CCC(C(=O)c4nc5ccccc5n4Cc4ccc(F)cc4)CC3)CCN(C(=O)c3cc(OC)c(OC)c(OC)c3)C2)cc1OC` (stereo not shown) [Example 1, 1-(3,4,5-Trimethoxy-benzoyl)-3-[2-[4-[1-(4-fluoro-benzyl)-1H-benzoimidazole-2-carbonyl]-piperidin-1-yl]-ethyl]-3-(3,4-dimethoxy-phenyl)-pyrrolidine], the IC50 in test [1] (setting [4]) was determined as 31 nM. In test [2] (setting [3]), the Kb is 31.6 nM.
In test [2], `COc1ccc(C2(CCN3CCC(C(=O)c4nc5ccccc5n4Cc4ccc(F)cc4)CC3)CCN(C(=O)c3ccccc3)C2)cc1OC` (stereo not shown) [Example 2, 1-Benzoyl-3-[2-[4-[1-(4-fluoro-benzyl)-1 H-benzoimidazole-2-carbonyl]-piperidin-1-yl]-ethyl]-3-(3,4-dimethoxy-phenyl)-pyrrolidine] gave a Kb of 26.9 nM.
Turning to `COc1ccc(C2(CCN3CCC(O)(c4nc5ccccc5n4Cc4ccc(F)cc4)CC3)CCN(C(=O)c3ccccc3)C2)cc1OC` (stereo not shown) [Example 3, 1-Benzoyl-3-[2-[4-[1-(4-fluoro-benzyl)-1 H-benzoimidazol-2-yl]-4-hydroxy-piperidin-1-yl]-ethyl]-3-(3,4-dimethoxy-phenyl)-pyrrolidine], in test [1], the concentration for half-maximal inhibition (IC50) came to 406 nM. Also, in test [2], the Kb is 37.2 nM.
For the compound `COc1ccc(C2(CCN3CCC(c4nc5ccccc5s4)CC3)CCN(C(=O)c3ccccc3)C2)cc1OC` (stereo not shown) [Example 4, 1-Benzoyl-3-[2-[4-(benzothiazol-2-yl)-piperidin-1-yl]-ethyl]-3-(3,4-dimethoxy-phenyl)-pyrrolidine], the IC50 in test [1] was determined as 2590 nM. Further, the Kb in test [2] (setting [3]) was 158 nM.
For `COc1ccc(C2(CCN3CCC(O)(c4nc5ccccc5n4Cc4ccc(F)cc4)CC3)CCN(C(=O)c3cc(OC)c(OC)c(OC)c3)C2)cc1OC` (stereo not shown) [Example 5, 1-(3,4,5-Trimethoxy-benzoyl)-3-[2-[4-[1-(4-fluoro-benzyl)-1 H-benzoimidazol-2-yl]-4-hydroxy-piperidin-1-yl]-ethyl]-3-(3,4-dimethoxy-phenyl)-pyrrolidine], in that order: 25 nM and 269 nM.
For `COc1cc(C(=O)N2CCC(CCN3CCC(C(=O)c4nc5ccccc5n4Cc4ccc(F)cc4)CC3)(c3ccc(Cl)c(Cl)c3)C2)cc(OC)c1OC` (stereo not shown) [Example 6, 1-(3,4,5-Trimethoxy-benzoyl)-3-[2-[4-[1-(4-fluoro-benzyl)-1 H-benzoimidazole-2-carbonyl]-piperidin-1-yl]-ethyl]-3-(3,4-dichloro-phenyl)-pyrrolidine], in that order: 85 nM and 141 nM.
Regarding `COc1cc(C(=O)N2CCC(CCN3CCC(O)(c4nc5ccccc5n4Cc4ccc(F)cc4)CC3)(c3ccc(Cl)c(Cl)c3)C2)cc(OC)c1OC` (stereo not shown) [Example 7, 1-(3,4,5-Trimethoxy-benzoyl)-3-[2-[4-[1-(4-fluoro-benzyl)-1 H-benzoimidazol-2-yl]-4-hydroxy-piperidin-1-yl]-ethyl]-3-(3,4-dichloro-phenyl)-pyrrolidine], the 50% inhibitory concentration (IC50) in test [1] was determined as 64 nM. For the same compound, in test [2], the Kb is 38.9 nM.
As to `COc1ccc(C2(CCN3CCC(C(O)(c4ccccc4)c4ccccc4)CC3)CCN(C(=O)c3cc(OC)c(OC)c(OC)c3)C2)cc1OC` (stereo not shown) [Example 9, 1-(3,4,5-Trimethoxy-benzoyl)-3-[2-[4-(hydroxy-diphenyl-methyl)-piperidin-1-yl]-ethyl]-3-(3,4-dimethoxy-phenyl)-pyrrolidine], in test [1], the half-maximal inhibitory concentration (IC50) was found to be 122 nM. In addition, the Kb in test [2] (setting [3]) was 724 nM.
`COc1cc(C(=O)N2CCC(CCN3CCC(C(=O)c4nc5ccccc5n4Cc4ccc(F)cc4)CC3)(c3ccc4c(c3)OCO4)C2)cc(OC)c1OC` (stereo not shown) [Example 10, 1-(3,4,5-Trimethoxy-benzoyl)-3-[2-[4-[1-(4-fluoro-benzyl)-1 H-benzoimidazole-2-carbonyl]-piperidin-1-yl]-ethyl]-3-(benzo[1,3]dioxol-5-yl)-pyrrolidine]: the IC50 in test [1] (setting [4]) was determined as 146 nM. Moreover, the Kb in test [2] (setting [3]) is 60.3 nM.
For the compound `COc1cc(C(=O)N2CCC(CCN3CCC(C(=O)c4nc5ccccc5n4Cc4ccc(F)cc4)CC3)(c3ccccc3)C2)cc(OC)c1OC` (stereo not shown) [Example 11, 1-(3,4,5-Trimethoxy-benzoyl)-3-[2-[4-[1-(4-fluoro-benzyl)-1 H-benzoimidazole-2-carbonyl]-piperidin-1-yl]-ethyl]-3-phenyl-pyrrolidine], the Kb in test [2] (setting [3]) was 33.9 nM.
As for `COc1cc(C(=O)N2CCC(CCN3CCC(C(=O)c4nc5ccccc5n4Cc4ccc(F)cc4)CC3)(c3ccc(C(F)(F)F)cc3)C2)cc(OC)c1OC` (stereo not shown) [Example 20, 1-(3,4,5-Trimethoxy-benzoyl)-3-[2-[4-[1-(4-fluoro-benzyl)-1 H-benzoimidazole-2-carbonyl]-piperidin-1-yl]-ethyl]-3-(4-trifluoromethyl-phenyl)-pyrrolidine], in test [1], the IC50 was 109 nM. For the same compound, the Kb in test [2] (setting [3]) is 129 nM.
For `COc1cc(C(=O)N2CCC(CCN3CCC(C(=O)c4nc5ccccc5n4Cc4ccc(F)cc4)CC3)(c3ccc(F)cc3F)C2)cc(OC)c1OC` (stereo not shown) [Example 25, 1-(3,4,5-Trimethoxy-benzoyl)-3-[2-[4-[1-(4-fluoro-benzyl)-1 H-benzoimidazole-2-carbonyl]-piperidin-1-yl]-ethyl]-3-(2,4-difluoro-phenyl)-pyrrolidine], in that order: 325 nM and 141 nM.
For `CC(C)Oc1cccc(CC(=O)N2CCC(CCN3CCC(C(=O)c4nc5ccccc5n4Cc4ccc(F)cc4)CC3)(c3ccc4c(c3)OCO4)C2)c1` (stereo not shown) [Example 26, 1-(3-Isopropoxy-phenyl-acetyl)-3-[2-[4-[1-(4-fluoro-benzyl)-1 H-benzoimidazole-2-carbonyl]-piperidin-1-yl]-ethyl]-3-(benzo[1,3]dioxol-5-yl)-pyrrolidine], in that order: 288 nM and 61.7 nM.
Taken in the same sequence, the figures for `COc1ccc(C(=O)N2CCC(CCN3CCC(C(=O)c4nc5ccccc5n4Cc4ccc(F)cc4)CC3)(c3ccc4c(c3)OCO4)C2)c(OC)c1OC` (stereo not shown) [Example 27, 1-(2,3,4-Trimethoxy-benzoyl)-3-[2-[4-[1-(4-fluoro-benzyl)-1 H-benzoimidazole-2-carbonyl]-piperidin-1-yl]-ethyl]-3-(benzo[1,3]dioxol-5-yl)-pyrrolidine] were 370 nM and 20.9 nM.
Consider `CCOc1cc(C(=O)N2CCC(CCN3CCC(C(=O)c4nc5ccccc5n4Cc4ccc(F)cc4)CC3)(c3ccc(OC)c(OC)c3)C2)cc(OCC)c1OCC` (stereo not shown) [Example 28, 1-(3,4,5-Triethoxy-benzoyl)-3-[2-[4-[1-(4-fluoro-benzyl)-1 H-benzoimidazole-2-carbonyl]-piperidin-1-yl]-ethyl]-3-(3,4-dimethoxy-phenyl)-pyrrolidine], for which the IC50 in test [1] (setting [4]) amounted to 1240 nM. Besides, the Kb in test [2] (setting [3]) is 20.4 nM.
With `COc1cc(C(=O)N2CCC(CCN3CCC(C(=O)c4nc5ccccc5n4CCN4CCOCC4)CC3)(c3ccc(Cl)c(Cl)c3)C2)cc(OC)c1OC` (stereo not shown) [Example 32, 1-(3,4,5-Trimethoxy-benzoyl)-3-[2-[4-[1-(2-(morpholin-4-yl)-ethyl)-1 H-benzoimidazole-2-carbonyl]-piperidin-1-yl]-ethyl]-3-(3,4-dichlororphenyl)-pyrrolidine], in test [1], the IC50 is 15 nM. In test [2] (setting [3]), the Kb was 513 nM.

The values above are taken from patent publication US6329392A, “Substituted piperidines useful for the treatment of allergic diseases” (Aventis Pharmaceuticals, Inc., priority 1998, dated 2001).
